Consider nine compounds from ChEMBL document CHEMBL1201862, “PubChem BioAssay data set” (2004).

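How tested: cells in 96-well plates exposed to compound for 48 hours at five concentrations. GI50 is the concentration that inhibits growth by half.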 Calls of active or inactive are those of the source. Rule as the data show it: active = GI50 up to about 1.1 µM and inactive = higher. Where only a bound is given, the exact number is not on record here.

Among the test systems are HT-29; SNB-75; SW-620; SF-268; SK-MEL-28; ACHN; OVCAR-3; RPMI-8226; KM12; IGROV-1; LOX IMVI; MOLT-4; SK-MEL-2; HL-60; M14; SF-295.
Experiment in all cases: NCI tumour cell line growth inhibition, 48 h

For the compound `Oc1ccc2c(c1)OCC1(O)Cc3cc(O)c(O)cc3C21` (configuration not stated), the GI50 in the assay with HT-29 was 21.3 µM (inactive); in the assay with SNB-75, 24.3 µM (inactive); in the assay with SW-620, 18.6 µM (inactive); with SF-268, 27.1 µM (inactive); with SK-MEL-28, 17.5 µM (inactive); in the assay with ACHN, 18.2 µM (inactive). Also, the GI50 in the assay with OVCAR-3 was 16.2 µM (inactive); with RPMI-8226 it was 26.5 µM (inactive); with KM12, 32.7 µM (inactive); with IGROV-1, 39.6 µM (inactive); with LOX IMVI, 19.4 µM (inactive); with MOLT-4 it was 24.4 µM (inactive). The GI50 was 27.1 µM (inactive) in the assay on SK-MEL-2, 25.6 µM (inactive) in the assay on HL-60, 19.2 µM (inactive) in the assay on M14 and > 55.5 µM (inactive) with SF-295.
Consider `COc1ccc(C(=O)C(c2ccc(OCc3ccccc3)cc2)c2ccc(OCc3ccccc3)cc2)cc1`, for which the GI50 in the assay with HT-29, with SNB-75, in the assay with SW-620, with SF-268, with SK-MEL-28 and in the assay with ACHN was > 100 µM (inactive) throughout. The GI50 with OVCAR-3, in the assay on RPMI-8226, with KM12, in the assay with IGROV-1, in the assay with LOX IMVI and with MOLT-4 was > 100 µM (inactive) each time. Also, the GI50 with SK-MEL-2, in the assay on HL-60, in the assay with M14 and in the assay with SF-295 was > 100 µM (inactive) in each case.
Take `COc1ccc2[nH]cc(CCNC(=O)[C@](O)(Cc3cn(C)c4ccccc34)[C@@]3(O)OCC(O)C3O)c2c1` (some centres not stated): the GI50 with HT-29 was > 100 µM (inactive); in the assay on SNB-75 it was 38.5 µM (inactive); with SW-620, > 100 µM (inactive); in the assay with SF-268, 82.6 µM (inactive); in the assay on SK-MEL-28, > 100 µM (inactive); in the assay on ACHN, > 100 µM (inactive). Further, the GI50 in the assay with OVCAR-3 was > 100 µM (inactive); with RPMI-8226 it was 39.4 µM (inactive); with KM12, > 100 µM (inactive); with IGROV-1 it was > 100 µM (inactive); in the assay with LOX IMVI, > 100 µM (inactive); with MOLT-4, 37 µM (inactive). Further, the GI50 in the assay on SK-MEL-2 is > 100 µM (inactive); with HL-60, 32.1 µM (inactive); with M14, > 100 µM (inactive); in the assay on SF-295 it was > 100 µM (inactive).
`CCCCCCCC(=O)OCC1OC(OC)C(NC(=O)N(CCCl)N=O)C(O)C1O` (configuration not stated): the GI50 in the assay on HT-29 was 15 µM (inactive); in the assay on SNB-75, 4.72 µM (inactive); in the assay on SW-620, 4.17 µM (inactive); in the assay with SF-268, 2.15 µM (inactive); with SK-MEL-28 it was 33.3 µM (inactive); in the assay on ACHN it was 7.18 µM (inactive). Further, the GI50 in the assay with OVCAR-3 is 19.7 µM (inactive); in the assay on RPMI-8226 it was 16.3 µM (inactive); in the assay with KM12 it was 9.89 µM (inactive); in the assay on IGROV-1, 21.7 µM (inactive); in the assay with LOX IMVI it was 0.908 µM (active); in the assay with MOLT-4, 3.05 µM (inactive). Also, the GI50 with SK-MEL-2 is 17.1 µM (inactive); in the assay on HL-60, 4.14 µM (inactive); in the assay on M14, 8.41 µM (inactive); in the assay with SF-295, 4.07 µM (inactive).
As to `Nc1ccccc1C(=O)/C=C/c1c(O)ccc2ccccc12`, the GI50 with HT-29, in the assay with SNB-75, with SW-620, in the assay with SF-268, in the assay with SK-MEL-28 and in the assay on ACHN was > 100 µM (inactive) each time. Also, the GI50 is > 100 µM (inactive) with OVCAR-3; > 100 µM (inactive) with RPMI-8226; > 100 µM (inactive) in the assay with KM12; > 100 µM (inactive) in the assay with IGROV-1; 19.2 µM (inactive) with LOX IMVI; > 100 µM (inactive) in the assay with MOLT-4. The GI50 in the assay with SK-MEL-2, in the assay on HL-60, with M14 and in the assay with SF-295 was > 100 µM (inactive) throughout.
Consider `Nc1ccc2nc(Nc3ccc(F)cc3)cnc2c1`, for which the GI50 with HT-29 was > 100 µM (inactive); in the assay on SNB-75, > 100 µM (inactive); with SW-620, > 100 µM (inactive); in the assay with SF-268 it was 74.5 µM (inactive); in the assay with SK-MEL-28, > 100 µM (inactive); with ACHN, > 100 µM (inactive). Moreover, the GI50 in the assay with OVCAR-3 was 90.4 µM (inactive); in the assay with RPMI-8226 it was 61.7 µM (inactive); with KM12, > 100 µM (inactive); in the assay on LOX IMVI, > 100 µM (inactive); in the assay on MOLT-4, 27.7 µM (inactive); in the assay with SK-MEL-2 it was > 100 µM (inactive). Besides, the GI50 in the assay on HL-60 is 54.7 µM (inactive); with M14, > 100 µM (inactive); with SF-295 it was > 100 µM (inactive).
With `Cc1cc([N+](=O)[O-])c(C)c2c1[nH]c1ccc(O)cc12`, the GI50 in the assay on HT-29 was > 100 µM (inactive); in the assay on SNB-75, > 100 µM (inactive); in the assay on SW-620, 63.1 µM (inactive); in the assay with SF-268 it was > 100 µM (inactive); in the assay on SK-MEL-28, > 100 µM (inactive); in the assay with ACHN, 99.8 µM (inactive). Moreover, the GI50 is 60.4 µM (inactive) in the assay on OVCAR-3; 11.1 µM (inactive) with RPMI-8226; > 100 µM (inactive) in the assay on KM12; 61.5 µM (inactive) in the assay with LOX IMVI; 59.2 µM (inactive) in the assay on MOLT-4; > 100 µM (inactive) with SK-MEL-2. The GI50 is 16.2 µM (inactive) in the assay with HL-60, > 100 µM (inactive) with M14 and > 100 µM (inactive) with SF-295.
With `COc1ccc2c(c1)O[C@@H]1c3ccc(OC)cc3OC[C@H]21`, the GI50 in the assay with HT-29 was > 10 µM (inactive); with SNB-75 it was 16 µM (inactive); with SW-620 it was 20.8 µM (inactive); with SF-268 it was 38.2 µM (inactive); in the assay with SK-MEL-28, 40.5 µM (inactive); with ACHN, 52.4 µM (inactive). Besides, the GI50 with OVCAR-3 was 34 µM (inactive); with RPMI-8226, 26.9 µM (inactive); in the assay with KM12 it was 28.4 µM (inactive); in the assay with IGROV-1 it was 37 µM (inactive); in the assay with LOX IMVI, 17.9 µM (inactive); with MOLT-4, 16.6 µM (inactive). For the same compound, the GI50 in the assay with SK-MEL-2 was 23 µM (inactive); in the assay with HL-60, 19.3 µM (inactive); in the assay with M14, 26.9 µM (inactive); with SF-295 it was 26.9 µM (inactive).
On to `COc1cc2c(c(O)c1O)-c1ccc(OC)c(=O)cc1C(NC(C)=O)CC2` (configuration not stated), for which the GI50 with HT-29 was 3.91 µM (inactive); with SNB-75, 2.57 µM (inactive); with SW-620, 5.27 µM (inactive); in the assay on SF-268 it was 5.75 µM (inactive); with SK-MEL-28, 24.8 µM (inactive); in the assay on ACHN, 74.6 µM (inactive). For the same compound, the GI50 in the assay on OVCAR-3 is 2.4 µM (inactive); in the assay with RPMI-8226 it was 3.86 µM (inactive); with KM12 it was 3.13 µM (inactive); in the assay on IGROV-1 it was 32.1 µM (inactive); in the assay on LOX IMVI, 6.82 µM (inactive); with MOLT-4, 5.5 µM (inactive). Moreover, the GI50 in the assay on SK-MEL-2 was 3.13 µM (inactive); in the assay with HL-60 it was 2.21 µM (inactive); with M14, 7.41 µM (inactive); with SF-295, 12.5 µM (inactive).
